What was measured:
[1] = system: collagen genes COL1A1 and COL1A2 in skin dermis; assay: Compound Screening on Skin Dermis: collagen gene expression (microarray) after topical treatment; type: in vivo, human; settings: dorsal forearm twice daily, four weeks, vs vehicle, retinol at 0.2%, Pal-KTTKS at 100 ppm, p-value in brackets in the cell
Excerpt: To screen compounds, 30 to 40 female subjects with Fitzpatrick skin types I-III, aged 60-70. At Baseline, each subject was assigned to test each treatment. The products were applied to the dorsal forearm twice daily. Topical treatment with a minimally efficacious moisturizer was used as the vehicle for each test compound and as the negative control.
After four weeks of treatment, one 4-mm punch biopsy was taken from each treated site. The dermis was separated and snap-frozen in liquid nitrogen and stored at −80° C. until assayed. The frozen tissue was then processed for gene expression analysis. To determine gene expression levels, RNA was extracted, labeled with biotin, hybridized and analyzed using Affymetrix GeneTitan® U219 microarray plates according to the manufacturer's instructions.
For genomics analysis, microarray sample quality was assessed using principal components analysis and MA-plots. Treatment to negative control comparisons for the microarray data were assessed using ANOVA models fitted separately for each probe set. ANOVA model hypothesis tests were evaluated using the Empirical Bayes method available in the limma R package. A p-value cutoff of 0.05 or less was consider statistically significant.

[2] = system: Primary Human Gingival Fibroblasts (HGF); assay: Test 1: In-Vitro Human Gingival Fibroblasts Soluble Collagen Assay (Sircol); type: cell-based; settings: for increase in collagen productivity vs. base control: Table 7 data, difference to base control
Experimental: Stage 1: Culturing Primary Human Gingival Fibroblasts (“HGF”): Primary Human Gingival Fibroblasts (“HGF”) were collected from tooth extraction patients and washed with 5 mL of PBS (phosphate buffered saline). The tissues were chopped into small pieces and placed into 15 mL centrifuge tube. The samples were digested with equal amounts of 1 mL 8% dispase and 1 mL 6% collagenase for 1 hr at 37° C., during which time the samples need to be shaken every 15 minutes. Once the digestion process was complete, the tube was centrifuged at 1100 r.p.m. for 6 minutes at room temperature. After centrifugation, a pellet of cells was formed in the bottom of the tube separating them from the supernatant solution. Then the supernatant was discarded and the cell pellet was suspended in 3 mL of fresh Minimum Essential Medium (“MEM”, available from Thermo Fisher) culture medium then transferred to a petri dish. The petri dish with cells were placed in the incubator at 37° C. with 5% CO2 for about 10 days. The petri dish was checked for changes in medium color every two days. Fresh culture medium was replaced if changes in medium color occurred.
Stage 2: Treatment with Compositions: Sub-Culturing Human Gingival Fibroblasts: When there was 80-90% cell monolayer coverage of the petri dish, the present culture medium was removed and washed with 5 mL of PBS. 1 mL 0.25% trypsin-EDTA solution was added and the cells sat for about 1-2 minutes at 37° C. until the cells were visibly round-shaped. It was occasionally necessary to tap the petri dish to remove any sticky cells from the petri dish surface. At least 1 mL of fresh MEM culture medium was added to inactivate the trypsin and the cells are collected into a 15 mL centrifuge tube. The tube was then centrifuged at 1100 r.p.m. for 6 minutes at room temperature. The supernatant was discarded and cell pellet is re-suspend-ed in 4 mL of fresh MEM culture medium in the same centrifuge tube. Petri dishes were each placed with 1 mL cell suspension and 9 mL fresh MEM culture medium in the incubator at 37° C. with 5% CO2 for about 3-5 days until 80-90% cell monolayer coverage on the petri dishes was observed.
When there was 80-90% cell monolayer coverage on the petri dishes, cells were re-suspended in 6 mL of fresh MEM culture medium. 1 mL cell suspension and 1 mL fresh MEM culture medium were respectively added into each well of a 6-well plate. The cells were further washed with 2 mL PBS to remove any suspended cells until no suspended cells are visible. […] Cells were maintained in the incubator at 37° C. with 5% CO2 for 72 hours.
Stage 3 Soluble Collagen Assay: Soluble collagen (types I to V) levels were measured by Sircol collagen assay kit (available from Biocolor, UK). After treatment, cells were washed two times with chilled PBS and homogenized with 6M urea. The cell homogenates were centrifuged at 15,000 r.p.m. for 15 min. 100 μL of the supernatant was mixed with 1 mL of Sircol Dye Reagent for 30 minutes. During this time period, a collagen-dye complex formed and precipitated out from the soluble unbound dye. The tubes were transferred to a microcentrifuge and spun at 12,000 r.p.m. for 10 minutes. The tubes were carefully inverted and drained. 750 μL ice-cold Acid-Salt Wash Reagent was gently added to the collagen-dye pellet to remove unbound dye from the surface of the pellet and the inside surface of the microcentrifuge tube. The tube was then centrifuged at 12,000 r.p.m. for 10 minutes. The supernatant was drained into a waste container and any fluid from the lip of the tubes was removed using cotton wool buds. 250 μL of Alkali Reagent was added to each tube to fully release the collagen bound dye. 200 μL of each sample was transferred to individual wells of a 96 micro well plate, keeping a record map of the contents of each well from A1 to H12.

[3] = Table 5, 1% composition in culture medium, 72 hours

Molecule | COL1A1 LFC (Log base 2 of the average Fold Change) [1] | COL1A2 LFC (Log base 2 of the average Fold Change) [1] | COL1A1 LFC (Log base 2 of the average Fold Change) ([1]; listed as retinol) | COL1A2 LFC (Log base 2 of the average Fold Change) ([1]; listed as retinol) | increase in collagen productivity vs. base control [2] | Collagen Productivity (Collagen/Cell) [2, 3] | Total Cell Count Cell [2, 3] | Total Collagen ([2]; Table 5, retinoids at 20 ppm in composition, 1% composition in culture medium, 72 hours) | Collagen Productivity (Collagen/Cell) ([2]; Table 6, 1:100 dilution) | Total Cell Count Cell ([2]; Table 6, 1:100 dilution) | Collagen Productivity ([2]; Table 7, 1:100 dilution) | Total Cell Count Cell ([2]; Table 7, 1:100 dilution) | Total Collagen ([2]; Table 7, 1:100 dilution) | Collagen Productivity (Collagen/Cell) ([2]; Table 9, 1:50 dilution) | Total Cell Count Cell ([2]; Table 9, 1:50 dilution) | Total Collagen ([2]; Table 9, 1:50 dilution)
CC1=C(/C=C/C(C)=C/C=C/C(C)=C/CO)C(C)(C)CCC1 [Retinol, retinol] | −0.10 (0.93) | −0.022 (0.88) | did not demonstrate significant regulation | did not demonstrate significant regulation | 0.30 |  |  |  |  |  |  |  |  |  |  | 
palmitoyl-lys-thr-thr-lys-ser [Pal-KTTKS] |  |  |  |  | 0.24 |  |  |  |  |  |  |  |  |  |  | 
TGF-B |  |  |  |  |  | 5.17 | 2.60 ×10^5 | 13.44 ug/100 ul | 4.86 | 2.72 ×10^5 | 4.86 ug per 10^5 cells/100 ul | 2.72 ×10^5 | 13.24 ug/100 ul | 5.17 | 2.60 ×10^5 | 13.44 ug/100 ul

From patent publication US20220401343A1, “ORAL CARE COMPOSITIONS FOR GUM HEALTH” (The Procter & Gamble Company, priority 2020, published 2022)
